Experimental data: patent US10273241B2 (President and Fellows of Harvard College, priority 2013, dated 2019)
pIC50: −log10 of the molar value. Read-outs that look alike come from different tables or passages of the source.

Columns and labels:
[1] = Liver microsome assay, metabolite formation; type: in vitro ADME, human; details: metabolite is compound 24B
MV4;11 = experiment: Cell growth assay, MV4;11 AML cell line; type: cell-based, human
Method: (§1) For all other cell lines, compounds were serially diluted in medium and dispensed in triplicate in 96-well plates (0.1% DMSO final for assay) followed by the addition of exponentially growing cells at densities ranging from 5,000 to 30,000 cells/well. Cells were also seeded into 2 additional control wells containing vehicle (0.1% DMSO). […] To determine the estimated cell number in each well, cells that were counted in the control well were diluted 3-fold for an 8-point dilution series, and transferred to 384-well plates in duplicate, 20 μL per well. Cells in all other wells were diluted 4-fold and transferred to 384-well plates in duplicate, 20 μL per well. 20 μL of CellTiter-Glo (Promega) was subsequently added to all wells and luminescence was detected using a SPECTRAmax M3. The control well dilution series was fit to a linear regression and used as a standard for calculating the estimated cell number for each well. For days 7 and 10, total estimated cell number represents the split-adjusted theoretical cell number.

AML cells = experiment: Comparison with cortistatin A: AML cell growth inhibition and CDK8 kinase inhibition; type: cell-based, human; details: more potent than cortistatin A
Method: For all other cell lines, compounds were serially diluted in medium and dispensed in triplicate in 96-well plates (0.1% DMSO final for assay) followed by the addition of exponentially growing cells at densities ranging from 5,000 to 30,000 cells/well. Cells were also seeded into 2 additional control wells containing vehicle (0.1% DMSO). After 3 days, the number of viable cells in one of the control wells was counted by hemocytometer or MOXI Z (Orflo) and an equal volume of cells for all wells were split-back with fresh vehicle/compounds such that the resulting seeding density for the control well was 5,000-30,000 cells/well, matching the initial seeding density in that well. This procedure was repeated on day 7 and day 10. % growth was calculated as % growth=100×(total estimated cell number in well−day 0 starting cell number)/(total average vehicle estimated cell number−day 0 starting cell number). To determine the estimated cell number in each well, cells that were counted in the control well were diluted 3-fold for an 8-point dilution series, and transferred to 384-well plates in duplicate, 20 μL per well. Cells in all other wells were diluted 4-fold and transferred to 384-well plates in duplicate, 20 μL per well. 20 μL of CellTiter-Glo (Promega) was subsequently added to all wells and luminescence was detected using a SPECTRAmax M3. […]

K562 = experiment: Cell growth assay, K562 cell line; type: cell-based, human; details: day 10, lack of activity is taken as evidence of on-target selectivity
Method: For all other cell lines, compounds were serially diluted in medium and dispensed in triplicate in 96-well plates (0.1% DMSO final for assay) followed by the addition of exponentially growing cells at densities ranging from 5,000 to 30,000 cells/well. Cells were also seeded into 2 additional control wells containing vehicle (0.1% DMSO). After 3 days, the number of viable cells in one of the control wells was counted by hemocytometer or MOXI Z (Orflo) and an equal volume of cells for all wells were split-back with fresh vehicle/compounds such that the resulting seeding density for the control well was 5,000-30,000 cells/well, matching the initial seeding density in that well. This procedure was repeated on day 7 and day 10. % growth was calculated as % growth=100×(total estimated cell number in well−day 0 starting cell number)/(total average vehicle estimated cell number−day 0 starting cell number). To determine the estimated cell number in each well, cells that were counted in the control well were diluted 3-fold for an 8-point dilution series, and transferred to 384-well plates in duplicate, 20 μL per well. Cells in all other wells were diluted 4-fold and transferred to 384-well plates in duplicate, 20 μL per well. 20 μL of CellTiter-Glo (Promega) was subsequently added to all wells and luminescence was detected using a SPECTRAmax M3. The control well dilution series was fit to a linear regression and used as a standard for calculating the estimated cell number for each well. For days 7 and 10, total estimated cell number represents the split-adjusted theoretical cell number.

MOLM-14 = experiment: Cell growth assay, MOLM-14 AML cell line; type: cell-based, human
Method: as §1

[2] = Pharmacokinetic study of cortistatin A in CD-1 mice; type: in vivo, CD-1 mice; details: for Cmax: mouse, in vivo, ip
[3] = system: STAT1 pS727 (CDK8 module kinase activity) in HepG2 cells; experiment: IFN-γ-stimulated STAT1 S727 phosphorylation, western blot; type: cell-based, human; details: 1 hour compound then 1 hour IFN-γ; STAT1 pY701 and total STAT1 unaltered
Method: CDK8 has been reported to […] interferon gamma-stimulated phosphorylation of STAT1 S727. See, e.g., Bancerek et al., Immunity (2013) 38:250-262. […] The cells were lysed and probed by western blot.
(§2) For STAT1 studies, MOLM-14 cells were treated with vehicle (0.1% DMSO) or compound for 1 h followed by the addition of IFNγ (Life Technologies, PHC4031) for 1 h. Cells were then collected, washed twice with cold PBS and snap frozen in liquid nitrogen. For all Western blotting, whole-cell lysates were prepared in RPA buffer (Sigma-Aldrich, R0278) with phosphatase and protease inhibitor additives (Sigma-Aldrich, P8340, P0044, P5762) and protein concentration was determined by BCA assay (Thermo Scientific, 23225). RIPA extracts were resolved by denaturing polyacrylamide gel electrophoresis (Life Technologies, NuPAGE) and transferred to PVDF membrane (Millipore) using the Mini Trans-Blot system (BioRad). The membranes were probed as recommended by the antibody manufacturers and proteins detected by chemiluminescence using horseradish peroxidase-conjugated secondary antibodies. For SMAD2/3 studies, HaCaT cells were treated as described for STAT1 with the addition of TGFβ1 (R&D Systems) in place of IFNγ.

Wnt/beta-catenin pathway = experiment: Wnt/beta-catenin reporter assay (SuperTOPflash luciferase, HEK293STF); type: cell-based; details: 24 hour treatment with Wnt3A or 10 μM azakenpaullone; read-out: IC50, inhibition of luciferase expression
Method: Exponentially growing HEK293STF were plated in triplicate in 96-well plates at a density of 5,000 cells/well in 75 μL. […] Additional triplicate control wells on each plate had media without cells or cells without azakenpaullone. For experiments with Wnt3A conditioned media, after 24 h, compounds were serially diluted in Wnt3A conditioned media as 1× solutions (0.1% DMSO final). Old media was removed from the cells and replaced with the compound/Wnt3A-media. Additional triplicate control wells on each plate had media without cells or cells that were treated with L-conditioned media (no Wnt3A). After 24 h, the CellTiter-Fluor and Steady-Glo assays (Promega) were subsequently performed in series to determine viability and luminescence, respectively, in each well (measurements made on a SPECTRAmax M3, Molecular Devices). Graphs were made in Prism 5 (GraphPad Software, Inc.) with nonlinear regression fit to a sigmoidal dose-response curve (variable slope).

[4] = system: SMAD2/3 phosphorylation in HaCat cells; experiment: TGF-beta-stimulated SMAD2/3 phosphorylation, western blot; type: cell-based; details: 1 hour compound then 1 hour TGF-beta
Method: as §2

[5] = Safety testing in healthy CD-1 mice; type: in vivo; details: 0.16 mg kg-1 once daily for 15 days, 2 hours after last dose
Method: (§3) Efficacy studies using the MV4;11 xenograft model were performed as previously described. See, e.g., Etchin et al., Leukemia (2013) 27, 66-74. Briefly, 2 million MV4;11 mCLP cells were introduced into 7-week-old female NOD-SCID-IL2Rcγ^null (NSG) mice (The Jackson Laboratory) via tail vein injection. The tumor burden was assessed by bioluminescence imaging (BLI) using an IVIS Spectrum system (Caliper Life Sciences). […] At 30 days post-treatment start date, 3 mice per group were sacrificed and blood counts were obtained using Hemavet 950 F instrument (Drew Scientific) and spleen, femur, and peripheral blood cells were collected and analyzed by flow cytometry (LSR Fortessa, BD Biosciences). The mice and a portion of the spleen were also preserved in bouins for histopathology. Mice were sectioned, paraffin-embedded and stained with hematoxylin and eosin. Survival of the drug-treated mice was measured as the time from initiation of therapy until moribund state. Survival benefit was assessed by Kaplan-Meier analysis. […] 2 h after the last dose, the mice were sacrificed, blood counts were obtained, blood chemistry was analyzed and the mice were fixed with bouins for histopathology. […] Once tumors reached an average size of 80-120 mm^3, the mice were treated with vehicle or 0.16 mg kg^−1 daily for the duration of the study.

[6] = system: MPLW515L-transduced bone marrow; experiment: Murine model of primary myelofibrosis (MPLW515L); type: in vivo, mice
BCL2L11 expression = experiment: BCL2L11 mRNA levels in MV4;11 and MOLM-14 cells; type: cell-based, human; details: 24 h treatment
[7] = system: SET-2 subcutaneous xenograft; experiment: SET-2 subcutaneous xenograft model; type: in vivo, SCID Beige mice; details: 0.16 mg kg-1 daily, n=10, P<0.001
Method: as §3

MV4;11 AML cells = experiment: MV4;11 disseminated leukemia mouse model of AML; type: in vivo, NOD-SCID-IL2Rcγnull (NSG) mice; details: 0.05 and 0.16 mg/kg once daily for 15 days
Method: as §3

[8] = Liver microsome metabolic stability assay; type: in vitro ADME; details: 1 micromolar, 0.5 mg/ml microsomal protein
Method: Test compounds were incubated at 37° C. with liver microsomes pooled from multiple donors at 1 micromolar in the presence of a NADPII regenerating system at 0.5 mg/ml microsomal protein. At 0, 5, 10, 20, 30, and 60 minutes, samples were removed, and mixed with cold acetonitrile containing an internal standard. After protein separation, samples were analyzed by LC/MS/MS for disappearance of the test compound using the ratio of peak area of analyte to internal standard. From the values, the microsome clearance was calculated. Species used were human, Sprague Dawley rat, beagle dog, and CD-1 mouse.

[9] = Human hepatocyte stability assay; type: in vitro ADME; details: 1 μM
Method: Test compounds were incubated in duplicate with cryopreserved hepatocytes at 37° C. The cells were thawed; viable cells counted, and equilibrated according to the supplier's directions. After 30 min equilibration at 37° C. with gentle agitation, the test compounds were added into the cells to give the desired final concentration of 1 μM. The cell suspension was incubated at 37° C. as above. At the indicated times, samples were removed and mixed with an equal volume of ice-cold Stop Solution (acetonitrile containing internal standards). Stopped reactions were incubated at least ten minutes on ice, and an additional volume of water was added. The samples were centrifuged to remove precipitated protein, and the supernatants were analyzed by LC/MS/MS to quantitate the remaining parent. Data were converted to % remaining by dividing by the time zero concentration value. Data were fit to a first-order decay model to determine half-life. From a plot of log (ln) peak area against time, the slope of the line was determined. Subsequently, half-life and intrinsic clearance were calculated using the equations below: Elimination rate constant (k)=(−slope); Half-life (T1/2) min=0.693/k; Intrinsic Clearance (CLint) (ml/min/million cells)=(V×0.693)/T1/2; V=incubation volume ml/number of cells.

[10] = Homo sapiens, MV4-11, 240 h, day 10, cells passaged, fresh compound added on days 3 and 7, read-out: MV 4;11 GI50 day 10
[11] = Homo sapiens, MOLM-14, 240 h, day 10, cells passaged, fresh compound added on days 3 and 7, read-out: MOL M14 G150 day 10

Compound: CN(C)[C@H]1CCC2=CC3=CC[C@]4(C)[C@@H](c5ccc6ccncc6c5)CC[C@H]4C34CC[C@]2(C1)O4 [14B, β-dimethylamine]
- metabolism in human liver microsomes [1]: undergoes N-monodemethylation at C3
- GI50 (MV4;11; [10]): 4 nM
- GI50 (MV4;11; Homo sapiens, MV4-11, day 7, fresh compound added on day 3, read-out: MV4;11 GI50 day 7): 8 nM
- potency relative to cortistatin A in cell growth inhibition and in CDK8 kinase inhibition (AML cells): approximately 2 fold
- GI50 (K562; Homo sapiens, K562, 240 h): > 1000 nM
- GI50 (MOLM-14; [11]): 3 nM
- GI50 (MOLM-14; Homo sapiens, MOLM-14, day 7, fresh compound added on day 3, read-out: MOL M14 GI50 day 7): 7 nM

Compound: cortistatin A [CA]
- calculated T1/2 ([2]; 10 mg/kg IP in 10% DMSO/phosphate buffered saline pH6, male CD-1 mice): 6.06 h
- Cmax ([2]; 1 mg/kg): 762 nM
- Cmax ([2]; 10 mg/kg, pH 6): 1400 nM
- calculated T1/2 between 0.5-2 h ([2]; single IP injection 1 mg/kg in 20% HPCD, male CD-1 mice): 0.55 h
- inhibition of IFN-γ-stimulated increase in STAT1 pS727 [3]: potently inhibited
- pIC50 (Wnt/beta-catenin pathway): 8.82
- GI50 (MV4;11; day 7, fresh compound added on day 3, read-out: MV4;11 GI50 day 7): 9 nM
- GI50 (MV4;11; day 10, cells passaged, fresh compound added on days 3 and 7, read-out: MV 4;11 GI50 day 10): 4 nM
- TGF-beta-stimulated SMAD2/3 phosphorylation [4]: dose-dependently inhibited
- complete blood count (CBC) vs vehicle [5]: no significant differences
- spleen weights ([6]; 0.31 mg/kg and 0.62 mg/kg i.p. once daily, after 6 doses): significant reduction
- allele burden (GFP percentage in peripheral blood) ([6]; after 4 doses of daily treatment): significant reduction
- mRNA levels of BCL2L11 (BCL2L11 expression): dose-dependently increases
- tumor growth inhibition [7]: 68%
- efficacy (bioluminescence, survival, spleen and bone marrow burden) (MV4;11 AML cells): effective
- mean body weight (MV4;11 AML cells; n=11): did not decrease
- GI50 (K562): > 1000 nM
- GI50 (MOLM-14; day 7, fresh compound added on day 3, read-out: MOL M14 GI50 day 7): 9 nM
- GI50 (MOLM-14; day 10, cells passaged, fresh compound added on days 3 and 7, read-out: MOL M14 G150 day 10): 5 nM

Compound: C[C@]12CC=C3C=C4CC[C@H]([N+](C)(C)[O-])CC45CC[C@]3(O5)[C@@H]1CC[C@@H]2c1ccc2ccncc2c1 [14BNO, 14B-N-Oxide]
- metabolic stability in liver microsomes compared with 14B [8]: increased stability
- metabolic stability in liver microsomes compared with 14B ([8]; listed as N-oxide of compound 14B): improved stability
- GI50 (MV4;11; [10]): 1 nM
- GI50 (K562; Homo sapiens, K562, 240 h): > 1000 nM
- half-life and clearance rate in hepatocytes [9]: acceptable half-life and clearance rate
- GI50 (MOLM-14; [11]): 2 nM
